Assay results reported in US7598280B2, “Heterocyclic compounds, compositions comprising them and methods of their use” (Lexicon Pharmaceuticals, Inc., priority 2007, dated 2009).

Tests used:
circulating lymphocytes = assay: Measuring effects on lymphocytes in mice; format: in vivo
Description: Unless otherwise indicated, the term “circulating lymphocyte reduction factor” or “CLRF” means the decrease in the number of circulating lymphocytes in mice caused by oral administration of a single dose of a compound at 100 mg/kg, as determined by the method described in the Examples, below.
Compounds were administered by oral gavage or in drinking water. For oral dosing experiments, compounds were resuspended from crystals at 10 mg/ml in vehicle (e.g., water). Mice (F1 hybrids of 129/B6 strain) were gavaged with a single 100 mg/kg dose of compound (equivalent to 100 mpk of the free base for each compound) or a vehicle-only control, and returned to their cages. Mice were anesthetized using isofluorane eighteen hours after dosing and tissues were collected for analysis as described below. For drinking water studies, compounds were dissolved at 50 mg/L in acidified water (pH=2.8) containing 10 g/L glucose. The mice were allowed free access to compound-containing water (or glucose solution as a control) for 72 hours. At the end of 72 hours, tissues were collected for analysis.
CBC measurements were obtained as follows. Mice were anesthetized with isofluorane and blood was collected from the retroorbital plexus into EDTA blood collection tubes (Capiject-MQK, Terumo Medical Corp., Elkton, Md.). […]

S1P lyase = target: T1, S1P lyase (Mus musculus, UniProt Q8R0X7); conditions: when administered to mice; cited from earlier work
T1 construct: host or cells: mice (in vivo, endogenous enzyme)
T1 sequence (Q8R0X7 1-568): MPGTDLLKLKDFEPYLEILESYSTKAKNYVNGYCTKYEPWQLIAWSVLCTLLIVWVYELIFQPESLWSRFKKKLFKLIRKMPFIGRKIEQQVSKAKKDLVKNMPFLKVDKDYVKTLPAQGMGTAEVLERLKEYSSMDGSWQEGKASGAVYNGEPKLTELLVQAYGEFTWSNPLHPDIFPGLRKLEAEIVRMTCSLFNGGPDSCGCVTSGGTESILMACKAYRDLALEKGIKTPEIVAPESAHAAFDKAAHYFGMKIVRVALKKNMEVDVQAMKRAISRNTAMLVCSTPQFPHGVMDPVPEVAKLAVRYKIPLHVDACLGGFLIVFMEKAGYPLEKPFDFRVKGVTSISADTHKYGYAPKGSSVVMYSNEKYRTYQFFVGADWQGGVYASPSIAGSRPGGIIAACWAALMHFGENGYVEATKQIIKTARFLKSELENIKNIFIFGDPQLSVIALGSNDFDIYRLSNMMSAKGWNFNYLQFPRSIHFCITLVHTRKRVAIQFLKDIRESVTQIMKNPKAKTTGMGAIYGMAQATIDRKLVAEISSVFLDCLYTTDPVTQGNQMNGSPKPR

immunological effects = conditions: studies in humans; cited from earlier work
[1] = tested on: lymphocytes / mature T cells; conditions: administration to rats and mice; cited from earlier work

Compound: CC(=O)c1nc(C)c([C@@H](O)[C@H](O)[C@H](O)CO)s1 [1-(4-methyl-5-((1S,2R,3R)-1,2,3,4-tetrahydroxybutyl)thiazol-2-yl)ethanone]
- effect on circulating lymphocytes (circulating lymphocytes): little or no effect

Compound: CC(=O)c1nc(C(O)C(O)C(O)CO)c[nH]1 (stereo not drawn) [THI, 2-acetyl-4-tetrahydroxybutylimidazole]
- effect on circulating lymphocytes (circulating lymphocytes): capable of reducing circulating lymphocytes
- S1P lyase activity (S1P lyase): inhibits S1P lyase activity
- immunological effects (immunological effects): no immunological effects
- accumulation of mature T cells in the thymus [1]: causes the accumulation of mature T cells in the thymus
- lymphopenia [1]: induces lymphopenia
